# Structures can show the parent of a compound that is named as a salt.
# Columns and labels:
# [1] = system: CEM leukemia cells; test: Mitochondrial membrane potential (Δψm) assay, TMRM staining (FACS); format: cell-based, Human; settings: CEM cells pretreated 16 h, then 5 mM DEM 120 min, 250 nM TMRM; FIG. 3 and 4
# Description: FIG. 3. Representative flow cytometric two-dimensional color density dot plot analyses of mitochondrial membrane potential (ΔΨm) in leukemia CEM cells stained with 250 nM TMRM and analyzed using FL2-H channel as described in the experimental section. The percentage of cells with intact ΔΨm is indicated in the top right quadrant of captions. Representative example from at least three independent experiments. A total of 10000 events were recorded for each sample and analyzed with the CellQuest software (BD Biosciences).
# FIG. 4. A bar graph representation of means the percentage of cells with intact ΔΨm recorded by FACS. Data are expressed as means±SEM of three independent experiments run in duplicate.
# Measurement of Mitochondrial Membrane Potential (Δψm) (FACS). For the determination of Δψm, CEM leukemia cells were pre-treated with or without the test compounds for 16 h. The cells were treated with 5 mM DEM for 120 minutes, collected by centrifugation at 300×g for 3 minutes and then washed twice with phosphate buffered saline. The cells were re-suspended in HSSB buffer and incubated at 37° C. in the dark for 15 minutes with 250 nM TMRM (a cationic dye which accumulates within mitochondria in accordance with the Δψm Nernst potential). Cells were collected by centrifugation at 300×g for 3 minutes and then washed twice with phosphate buffered saline. The samples were analyzed immediately by flow cytometry using 488 nm excitation laser and the FL2-H channel. The results obtained were verified in three independent experiments. The protonophore FCCP (10 μM) was used to dissipate the chemiosmotic proton gradient […] and served as a control for loss of Δψm. […] The results were verified by repeating the experiments in duplicate.
# [2] = system: CEM cells; test: Reactive oxygen species (ROS) assay, DCFH-DA flow cytometry, glutathione depleted with diethyl maleate; format: cell-based, Human; settings: CEM cells pretreated 16 h with 1, 2.5 and 5 μM compound, then 5 mM DEM 50 min, FIG. 1; for protection against ROS production (DCF fluorescence): compared with α-tocopherol
# Description: FIG. 1. Representative flow cytometric histograms overlay showing ROS production in CEM cells. Following pretreatment with the indicated compounds (1, 2.5 and 5 μM) for 16 h, the cells were treated with 5 mM diethyl maleate (DEM) for 50 min to deplete glutathione. The cells were washed in phosphate-buffered saline, and suspended in phosphate-buffered saline containing 20 mM glucose. Cells were loaded with 10 μM dichlorodihydrofluoresceindiacetate (DCFH-DA) for 20 min, and the green fluorescence (DCF) was measured by flow cytometry using the FL1-H channel. […] A total of 10000 events were recorded for each sample and analyzed with the CellQuest software (BD Biosciences). Increased DCF fluorescence, a measure of intracellular oxidation and ROS production, was determined by a shift in DCF fluorescence to the right on the x-axis of the FACS histogram. […] Data are expressed as the mean±SEM (n=3). α-TOH is α-tocopherol.
# Cellular ROS production can be monitored using 2′,7′-dichlorodihydrofluorescein diacetate (DCFH-DA) (LeBel et al. (1992) Chem. Res. Toxicol. 5, 227-231) (Molecular Probes, Eugene, Oreg., USA), a membrane permeable and oxidant-sensitive fluorescent dye. DCFH-DA is a non-fluorescent derivative of fluorescein that emits fluorescence after being oxidized by hydrogen peroxide and other ROS. The emitted fluorescence is directly proportional to the concentration of hydrogen peroxide. DCFH-DA is nonionic and nonpolar and is easily taken up by cells. Once inside the cell, DCFH-DA is hydrolyzed by cellular esterases to non-fluorescent DCFH which traps the dye in the cell. In the presence of ROS including hydrogen peroxide, DCFH is oxidized to the highly fluorescent compound dichlorofluorescein (DCF). The intracellular DCF fluorescence is used as an index of cellular ROS production.
# Cellular oxidative stress was induced by pharmacological depletion of glutathione (GSH) using the chemical diethylmaleate (DEM). ROS production was assessed by monitoring DCF fluorescence. Leukemic CEM cells (ATCC®, catalogue number CRL-2264) were cultured in RPMI (GIBCO, Grand island, NY, USA) with 10% FCS, 2 mM glutamine (HyClone, South Logan, Utah, USA) and 1% penicillin-streptomycin mix antibiotics (Cellgro, Manassas, Va., USA) supplements. CEM cells (5×10^5 cell/mL) were plated (1 mL) in 24-well plate and treated with the invention compounds (final concentration 1, 2.5, and 5 μM), and incubated at 37° C., 5% CO2 for 16 hours. The compounds tested were prepared by first making stock solutions (2.5 mM) in dimethylsulfoxide (DMSO). Cells were treated with 5 mM DEM for 50 minutes and collected by centrifugation at 300×g for 3 min and then washed twice with Hanks' Balanced Salt Solution (HSSB) buffer (Sigma, St. Louis, Mo. USA). Cells were re-suspended in HSSB buffer+20 mM glucose and incubated at 37° C. in the dark for 20 min with 10 μM DCFH-DA. Cells were collected by centrifugation at 300×g for 3 min and then washed twice with HSSB buffer. The samples were analyzed immediately by flow cytometry (Becton-Dickinson FACS Caliber), (Cell Quest software, BD Biosciences) using 488 nm excitation laser and FL1-H channel 538 nm emission filter. In each analysis, 10,000 events were recorded after cell debris were electronically gated out. Results obtained were verified by repeating experiments N=3 independent experiments. Authentic hydrogen peroxide was used as a positive control.
# [3] = system: CEM leukemia cells; test: Lipid peroxidation, C11-BODIPY581/591 oxidation in cell culture (FACS); format: cell-based, Human; settings: CEM cells pretreated 16 h with 2.5 and 5 μM compound, then 5 mM DEM 90 min; compared with α-tocopherol; FIG. 2
# Description: FIG. 2. Comparison of the lipid peroxidation in CEM leukemia cells depleted of glutathione detected by utilizing the oxidation-sensitive fatty acid probe C-11 BODIPY^581/591 using flow cytometry. Increased C-11 BODIPY-green fluorescence (oxidized form), a measure of intracellular lipid peroxidation, was determined by increasing the geometric mean fluorescence intensity (GMFI) of C-11 BODIPY-green relative to the untreated control. A bar graph representing the percentage of the geometric mean fluorescence intensity (GMFI) of C-11 BODIPY-green fluorescence relative to a treated control is shown. Data are expressed as the mean±SEM (n=3). α-TOH is α-tocopherol.
# Lipid peroxidation in CEM leukemia cells was detected by utilizing the oxidant-sensitive lipophilic probe C11 BODIPY^581/591. Briefly, CEM cells (5×10^5 cell/mL) were treated with the test compounds at final concentrations of 2.5 and 5 μM, and incubated at 37° C. for 16 h in a humidified atmosphere containing 5% CO2 in air. Cells were treated with 1 μMC11 BODIPY^581/591 in phenol red-free RPMI-1640 media and incubated at 37° C. in the dark for 30 minutes. The cells were washed twice with phosphate buffered saline and oxidative stress was induced with 5 mM DEM in phenol red-free RPMI-1640 media for 90 minutes. Treated cells were collected by centrifugation at 300×g for 3 minutes and then washed twice with phosphate buffered saline. Cells were re-suspended in 250 μL of phosphate buffered saline and were analyzed by FACS (FACS Calibur flow cytometer, Becton Dickinson) to monitor the change in intensity of the C11 BODIPY^581/591-green (oxidized) fluorescence signal. A total of 10000 events were recorded for each sample and analyzed with the CellQuest software (BD Biosciences). The results were verified by repeating the experiments in duplicate. Results are expressed as the relative percentage of treated control (DEM).
# [4] = system: CEM cells; test: Trypan blue cell viability assay of DEM-treated cells; format: cell-based, Human; settings: CEM cells pretreated 16 h, then 5 mM DEM 5.5 h; FIG. 5
# Description: FIG. 5. Trypan blue exclusion assay of CEM cells treated with test compounds for 16 h before exposure to 5 mM diethyl maleate for 5.5 h. At the time of assay, >80% of the DEM-treated cells were trypan blue positive, whereas in the non-DEM treated control, >95% of the cells were viable. Cell viability was expressed as the percentage of control. Results are an average of three independents trials. α-TOH is α-tocopherol.
# Cell viability determined by trypan blue exclusion assay: This technique was used to assess the cytoprotective effects of the invention compounds in cultured cells pharmacologically treated to induce cell death by GSH depletion. DEM was used to deplete cellular GSH and induce oxidative stress. The viability of DEM-treated CEM cells was determined by their ability to exclude the dye trypan blue. Viable cells exclude trypan blue; whereas, non-viable cells take up the dye and stain blue. Briefly, CEM lymphoblasts (CCL-119) were grown in RPMI 1640 medium (GIBCO, Grand island, NY, USA) supplemented with 10% fetal calf serum, 2 mM glutamine (HyClone, South Logan, Utah, USA), 1% penicillin-streptomycin mix (Cellgro, Manassas, Va., USA). Cells were seeded at a density of 5×10^5 cells/mL and treated with different concentrations of the invention compounds. Cells were incubated at 37° C. in a humidified atmosphere of 5% CO2 in air for 16 hours. After pre-incubation, the cells were treated with 5 mM DEM for 5.5 h. Cell viability was determined by staining cells with 0.4% trypan blue using a hemacytometer. At least 500 cells were counted for each experimental group. At the time of assay, >80% of DEM-treated cells were trypan blue positive; whereas, in non-DEM treated control cell cultures>95% cells were viable. Cell viability was expressed as the percentage of control. Data are expressed as means±S.E.M (n=3).
# [5] = James et al. (2005) J Biol. Chem. 280, 21295-21312; cited from earlier work
melting point [°C],Structure (SMILES),prevention of loss of Δψm (mitochondrial depolarization) [1],protection against ROS production (DCF fluorescence) [2],protection against lipid (membrane) peroxidation (C11-BODIPY-green fluorescence) [3],"cytoprotection (cell viability, trypan blue exclusion) [4]",intensity of DCF fluorescence [2],calculated octanol-water partition coefficient [5]
,"CCCCCc1nc2c(c(C)c1O)CCN2C [Compound 1a, 1,4-Dimethyl-6-pentyl-2,3-dihydro-1H-pyrrolo[2,3-b]pyridin-5-ol trifluoroacetic acid salt]",less effective in preventing mitochondrial depolarization,reduced protection,no protection,,,
,"CCCCCCCCCCc1nc2c(c(C)c1O)CCN2C [Compound 1b, 1,4-Dimethyl-6-decyl-2,3-dihydro-1H-pyrrolo[2,3-b]pyridin-5-ol trifluoro acetic acid salt]",the most effective in preventing mitochondrial depolarization,significantly better protection than α-tocopherol,significantly better protection than was achieved with α-tocopherol,more effective in cytoprotection than was α-TOH,significant decrease in the intensity of DCF fluorescence in a dose-dependent manner,
,"CCCCCCCCCCCCCCCCc1nc2c(c(C)c1O)CCN2C [Compound 1c, 1,4-Dimethyl-6-hexadecyl-2,3-dihydro-1H-pyrrolo[2,3-b]pyridin-5-ol trifluoroacetic acid salt]",less effective in preventing mitochondrial depolarization,intermediate protection,Reduced protection,,,
,"CCCCCc1nc2c(c(C)c1OC(C)=O)CCN2C [Compound 2a, 1,4-Dimethyl-6-pentyl-2,3-dihydro-1H-pyrrolo[2,3-b]pyridin-5-yl acetate]",less effective in preventing mitochondrial depolarization,reduced protection,no protection,,,
,"CCCCCCCCCCc1nc2c(c(C)c1OC(C)=O)CCN2C [Compound 2b, 1,4-Dimethyl-6-decyl-2,3-dihydro-1H-pyrrolo[2,3-b]pyridin-5-yl acetate]",the most effective in preventing mitochondrial depolarization,significantly better protection than α-tocopherol,results comparable to α-TOH,more effective in cytoprotection than was α-TOH,significant decrease in the intensity of DCF fluorescence in a dose-dependent manner,
,"CCCCCCCCCCCCCCCCc1nc2c(c(C)c1OC(C)=O)CCN2C [Compound 2c, 1,4-Dimethyl-6-hexadecyl-2,3-dihydro-1H-pyrrolo[2,3-b]pyridin-5-yl acetate]",less effective in preventing mitochondrial depolarization,intermediate protection,Reduced protection,,,
43 to 45,"CCCCCCCCCCCCCCCCc1cc(C)c2c(n1)N(C)CC2 [Example 10, 1,4-Dimethyl-6-hexadecyl-2,3-dihydro-1H-pyrrolo[2,3-b]pyridine]",,,,,,
,COC1=C(OC)C(=O)C(C/C=C(\C)CC/C=C(\C)CC/C=C(\C)CC/C=C(\C)CC/C=C(\C)CC/C=C(\C)CC/C=C(\C)CC/C=C(\C)CC/C=C(\C)CCC=C(C)C)=C(C)C1=O [coenzyme Q10],,,,,,> 10^20
,"Cc1c(C)c2c(c(C)c1O)CC[C@@](C)(CCC[C@H](C)CCC[C@H](C)CCCC(C)C)O2 [α-tocopherol, reference compound]",,,,significantly reduced cell death,,

# Source: US9440967B2, “1H-pyrrolo [2, 3 -B] pyridine derivatives and their use as radical quenchers” (Arizona Board of Regents on Behalf of Arizona State …, priority 2012, dated 2016)
